ChEMBL document CHEMBL4371049, “Semi-synthesis and anti-tumor activity of novel 25-OCH3-PPD derivatives incorporating aromatic moiety” (Bioorg Med Chem Lett, 2019)

What was measured:
Assay type in all cases: functional, cell-based
[1] = system: HepG2; experiment: Antiproliferative activity against human HepG2 cells after 48 hrs by MTT assay; details: HepG2, 48 h
[2] = system: PC-3; experiment: Antiproliferative activity against human PC3 cells after 48 hrs by MTT assay; details: PC-3, 48 h
[3] = system: BGC-823; experiment: Antiproliferative activity against human BGC823 cells after 48 hrs by MTT assay; details: BGC-823, 48 h
[4] = system: DU-145; experiment: Antiproliferative activity against human DU145 cells after 48 hrs by MTT assay; details: DU-145, 48 h
[5] = system: MCF7; experiment: Antiproliferative activity against human MCF7 cells after 48 hrs by MTT assay; details: MCF7, 48 h

| SMILES | IC50 [1] [µM] | IC50 [2] [µM] | IC50 [3] [µM] | IC50 [4] [µM] | IC50 [5] [µM] |
| --- | --- | --- | --- | --- | --- |
| COC(C)(C)CCC[C@@](C)(O)[C@H]1CC[C@]2(C)[C@@H]1[C@H](OC(=O)c1ccc([N+](=O)[O-])cc1)C[C@@H]1[C@@]3(C)CC[C@H](O)C(C)(C)[C@@H]3CC[C@]12C | > 50 | > 50 | > 50 | > 50 | > 50 |
| COC(C)(C)CCC[C@@](C)(O)[C@H]1CC[C@]2(C)[C@@H]1[C@H](O)C[C@@H]1[C@@]3(C)CC[C@H](OC(=O)c4ccc(F)cc4F)C(C)(C)[C@@H]3CC[C@]12C | 5.8 | 11.4 | 7.1 | 6.7 | 4.3 |
| COC(C)(C)CCC[C@@](C)(O)[C@H]1CC[C@]2(C)[C@@H]1[C@H](OC(=O)c1ccc([N+](=O)[O-])cc1)C[C@@H]1[C@@]3(C)CC[C@H](OC(=O)c4ccc([N+](=O)[O-])cc4)C(C)(C)[C@@H]3CC[C@]12C | > 50 | > 50 | > 50 | > 50 | > 50 |
| COC(C)(C)CCC[C@@](C)(O)[C@H]1CC[C@]2(C)[C@@H]1[C@H](O)C[C@@H]1[C@@]3(C)CC[C@H](OC(=O)c4ccc(F)cc4)C(C)(C)[C@@H]3CC[C@]12C | 8.5 | 15 | 12.7 | 13.8 | 9.4 |
| COC(C)(C)CCC[C@@](C)(O)[C@H]1CC[C@]2(C)[C@@H]1[C@H](OC(=O)c1cc([N+](=O)[O-])cc([N+](=O)[O-])c1)C[C@@H]1[C@@]3(C)CC[C@H](OC(=O)c4cc([N+](=O)[O-])cc([N+](=O)[O-])c4)C(C)(C)[C@@H]3CC[C@]12C | > 50 | > 50 | > 50 | 44.6 | 38.2 |
| COC(C)(C)CCC[C@@](C)(O)[C@H]1CC[C@]2(C)[C@@H]1[C@H](O)C[C@@H]1[C@@]3(C)CC[C@H](OC(=O)c4ccccc4C)C(C)(C)[C@@H]3CC[C@]12C | > 50 | > 50 | > 50 | 44.3 | 37.6 |
| COC(C)(C)CCC[C@@](C)(O)[C@H]1CC[C@]2(C)[C@@H]1[C@H](OC(=O)c1cc(F)ccc1Br)C[C@@H]1[C@@]3(C)CC[C@H](OC(=O)c4cc(F)ccc4Br)C(C)(C)[C@@H]3CC[C@]12C | > 50 | > 50 | > 50 | > 50 | > 50 |
| COC(C)(C)CCC[C@@](C)(O)[C@H]1CC[C@]2(C)[C@@H]1[C@H](OC(=O)/C=C/c1ccc(F)cc1)C[C@@H]1[C@@]3(C)CC[C@H](O)C(C)(C)[C@@H]3CC[C@]12C | > 50 | > 50 | > 50 | > 50 | > 50 |
| COC(C)(C)CCC[C@@](C)(O)[C@H]1CC[C@]2(C)[C@@H]1[C@H](O)C[C@@H]1[C@@]3(C)CC[C@H](OC(=O)c4ccc(Br)cc4)C(C)(C)[C@@H]3CC[C@]12C | 25.7 | 35.7 | 26.2 | 23.1 | 17.6 |
| COC(C)(C)CCC[C@@](C)(O)[C@H]1CC[C@]2(C)[C@@H]1[C@H](O)C[C@@H]1[C@@]3(C)CC[C@H](OC(=O)c4cc(F)ccc4Br)C(C)(C)[C@@H]3CC[C@]12C | 18.9 | 39.9 | 34.4 | 28.7 | 15.6 |
| COC(C)(C)CCC[C@@](C)(O)[C@H]1CC[C@]2(C)[C@@H]1[C@H](OC(=O)c1ccccc1)C[C@@H]1[C@@]3(C)CC[C@H](OC(=O)c4ccccc4)C(C)(C)[C@@H]3CC[C@]12C | > 50 | > 50 | > 50 | > 50 | > 50 |
| COC(C)(C)CCC[C@@](C)(O)[C@H]1CC[C@]2(C)[C@@H]1[C@H](O)C[C@@H]1[C@@]3(C)CC[C@H](OC(=O)c4ccccc4I)C(C)(C)[C@@H]3CC[C@]12C | 39.2 | 46.5 | 28.7 | 28.1 | 33.4 |
| COC(C)(C)CCC[C@@](C)(O)[C@H]1CC[C@]2(C)[C@@H]1[C@H](OC(=O)c1ccc(I)cc1)C[C@@H]1[C@@]3(C)CC[C@H](OC(=O)c4ccc(I)cc4)C(C)(C)[C@@H]3CC[C@]12C | > 50 | > 50 | > 50 | > 50 | > 50 |
| COC(C)(C)CCC[C@@](C)(O)[C@H]1CC[C@]2(C)[C@@H]1[C@H](O)C[C@@H]1[C@@]3(C)CC[C@H](OC(=O)c4ccc([N+](=O)[O-])cc4)C(C)(C)[C@@H]3CC[C@]12C | 20.6 | 16.7 | 17.4 | 19.2 | 25.3 |
